Non-standard residues stand in square brackets, D forms with d. Residues, ends and D or L forms follow the SMILES beside them. Nle = CCCC[C@H](N)C(=O)O
How the values were obtained:
HaCaT cells = test: Cytotoxicity on human keratinocytes, MTT assay; type: cell-based; settings: 3.12–12.5 μM, 2 h and 24 h
Description: The human immortalized keratinocytes HaCaT cells were purchased from AddexBio (San Diego, CA, USA) and cultured in Dulbecco’s modified Eagle’s medium supplemented with 4 mM glutamine (DMEMg), 10% heat-inactivated fetal bovine serum (FBS), and 0.1 mg/mL of penicillin and streptomycin, at 37 °C and 5% CO2, in 25 cm^2 or 75 cm^2 flasks. The in vitro MTT [3-(4,5-dimethylthiazol-2-yl)-2,5-diphenyltetrazolium bromide] assay, based on the reduction of the yellow tetrazolium salt MTT to the purple formazan by viable cells with active metabolism, was used to evaluate the peptide cytotoxicity on HaCaT cells, as previously described in [27]. Specifically, 4 × 10^4 HaCaT cells, suspended in DMEMg supplemented with 2% FBS were plated in a 96-well microtiter plate. After overnight incubation, at 37 °C in a 5% CO2 atmosphere, HaCaT cells were treated for 2 h or 24 h with fresh serum free medium containing the peptide [Nle^1, DLeu^9, DLys^10]TL in a concentration range from 3.12 to 100 μM. […] Formazan crystals were dissolved using acidified isopropanol, and the absorbance of each well was measured at 570 nm using a microplate reader (Infinite M200; Tecan, Salzburg, Austria). The number of viable cells was proportional to the intensity of purple color and was expressed as percentage compared to that of untreated control cells (100%). […]

[1] = Peptide aggregation in LUVs, Thioflavin T; type: physicochemical; settings: LUVs DOPG/CL (58/42), 0.1 mM lipid
Description: Regarding peptide aggregation in LUVs, was monitored using the Thioflavin T as fluorescent probe. LUVs were prepared using the extrusion method. Firstly, the lipid films (final concentration of 0.1 mM), made of DOPG, CL (58/42 ratio in moles) and DOPG/DOPE/CL (63/23/12 ratio in moles), were prepared by dissolving an appropriate amount of lipids in chloroform. The solvent was removed under nitrogen stream, water was added, and the film lipids were freeze-dried. Then, the lipid films were hydrated with 100 mM NaCl, 10 mM Tris-HCl, 25 μM Tht buffer, pH 7.4, and vortexed for 1 h. Then, the lipid suspension was freeze-thawed 6 times and extruded 10 times through polycarbonate membranes with […] diameter pores to obtain LUVs. The aggregation of [Nle^1, DLeu^9, DLys^10]TL was monitored titrating LUVs with different peptide concentrations of 5, 10, 15, 20, 30, 50 μM. Spectra were recorded before and after the addition of peptide using a Varian Cary Eclipse fluorescence spectrometer, exciting the sample at 450 nm (slit width, 10 nm) and recording fluorescence emission at 482 nm (slit width, 5 nm). Aggregation was quantified according to this equation: %A= […] × 100, where Ff indicates the value of fluorescence after peptide addition, F0 the fluorescence in the absence of peptide and Fmax is the fluorescence maximum obtained immediately after peptide addition.

sheep red blood cells = test: Hemolytic assay; type: cell-based
Description: Hemolysis was evaluated on sheep red blood cells (OXOID, SR0051D, Milan, Italy). Aliquots of cells in 0.9% (w/v) NaCl were incubated with the peptide [Nle^1, DLeu^9, DLys^10]TL at different concentrations (ranging from 3.12 to 100 μM) for 40 min at 37 °C with gentle shaking. Controls were erythrocytes treated with vehicle while total lysis controls were obtained by suspending cell in distilled water. Then, the samples were centrifuged for 5 min at 900× g, and the presence of hemoglobin in the supernatant was measured at an absorbance of 415 nm using a microplate reader (Infinite M200; Tecan, Salzburg, Austria) and compared to the complete lysis of erythrocytes (100%). The data reported are the mean ± the standard error of the mean (S.E.M.) of three independent experiments.

Compound: CCCC[C@H](N)C(=O)N[C@@H](Cc1ccccc1)C(=O)N[C@H](C(=O)N1CCC[C@H]1C(=O)N[C@@H](Cc1c[nH]c2ccccc12)C(=O)N[C@@H](Cc1ccccc1)C(=O)N[C@@H](CO)C(=O)N[C@@H](CCCCN)C(=O)N[C@@H](Cc1ccccc1)C(=O)N[C@H](CC(C)C)C(=O)N[C@H](CCCCN)C(=O)N[C@@H](CCCNC(=N)N)C(=O)N[C@H](C(=O)N[C@@H](CC(C)C)C(N)=O)[C@@H](C)CC)C(C)C [[Nle^1, DLeu^9, DLys^10]TL] (H-[Nle]FVPWFSKF[dL][dK]RIL-NH2)
- effect on human keratinocytes viability (HaCaT cells): only a slight reduction
- aggregation (ThT) ([1]; 5 μM peptide, pH 7.4, 25 μM ThT fluorescence): ~ 22%
- aggregation (ThT) ([1]; 30 μM peptide, pH 7.4, ThT fluorescence): completely aggregated
- hemolysis (sheep red blood cells; 50 µM): ~ 40%
- hemolysis (sheep red blood cells; 100 µM): ~ 40%

— publication PMC9598925, “Synthetic Amphipathic β-Sheet Temporin-Derived Peptide with Dual Antibacterial and Anti-Inflammatory Activities” (Antibiotics, 2022)
